Data reported in patent US20210079476A1, “BIOMARKERS OF RENAL OSTEODYSTROPHY TYPE” (The Trustees of Columbia University in the City of New York, priority 2018, published 2021).
“Also recorded” adds a separate entry of the source.

Assays:
Cy/+ (CKD) rat = settings: Cy/+ CKD rat model; cited from earlier work
CKD rats (Cy/+) [1] = experiment: Cy/+ rat model of CKD: bone turnover by histomorphometry after treatment; format: in vivo
Description: (§1) The Cy/+ rat model of CKD was used to assess bone expression of miRNAs. Cy/+ rats are characterized by an autosomal dominant progressive cystic kidney disease that is […] with human ADPKD(63). […] The Cy/+IU colony of rats has been bred for nearly 20 years. The model recapitulates CKD-MBD with progressive kidney disease, hyperphosphatemia, secondary hyperparathyroidism, elevated FGF-23, resulting in ROD and vascular calcification. Importantly, the slowly progressive nature of the model allows for examination of interventions that differentially affect bone remodeling. […] In brief, CKD animals (n=8-10 each group) began treatment at 25 weeks for a total of 10 weeks and received 1) no treatment (control CKD=high PTH/high turnover, 2) 3% calcium in the drinking water (CKD/Ca group=low PTH/low turnover), or 3) a single injection of zoledronic acid (CKD/Zol group=high PTH/low turnover). At 35 weeks of age, animals were euthanized and bone tissue were collected. Bone histomorphometry as previously reported (67). RNA was isolated from tibia and bone miRNA expression determined by real time PCR using TaqMan miRNA assay as above.
The Cy/+ rat model of CKD was used to assess bone expression of miRNAs. […] The Cy/+IU colony of rats has been bred at Indiana University for nearly 20 years. […]

[2] = tested on: miRNA 30b, 30c, 125b and 155; format: in vivo, rat; settings: CKD rats
Description: as §1
The Cy/+ rat model of CKD was used to assess bone expression of miRNAs. […] The Cy/+IU colony of rats has been bred at Indiana University for nearly 20 years. The model recapitulates CKD-MBD with progressive kidney disease, hyperphosphatemia, secondary hyperparathyroidism, elevated FGF-23, resulting in ROD and vascular calcification. Importantly, the slowly progressive nature of the model allows for examination of interventions that differentially affect bone remodeling. Specifically, we have induced low turnover bone remodeling by two methods: with calcium in the drinking water (calcium binders) and zoledronic acid.^41, 42 In brief, CKD animals (n=8 to 10 each group) began treatment at 25 weeks for a total of 10 weeks and received: (i) no treatment (control CKD=high PTH/high turnover; (ii) 3% calcium in the drinking water (CKD/Ca group=low PTH/low turnover); or (iii) a single injection of 20 μg/kg of zoledronic acid (CKD/Zol group=high PTH/low turnover). At 35 weeks of age, animals were euthanized and bone tissue was collected. Bone histomorphometry was performed as previously reported.^43 RNA was isolated from tibia, and bone miRNA expression was determined by real-time PCR using TaqMan miRNA assay as described above. All procedures were reviewed and approved by the Indiana University School of Medicine Institutional Animal Care and Use Committee.

CKD rats (Cy/+) [3] = settings: Cy/+ rat model; cited from earlier work

SMILES	suppressing bone turnover (Cy/+ (CKD) rat)	PTH status of the treated group (CKD rats (Cy/+) [1]; same treatment groups, untreated CKD = high PTH)	type of bone turnover induced by the intervention (histomorphometry) (CKD rats (Cy/+) [1]; treatment from 25 weeks of age for 10 weeks, 3% calcium in drinking water or single injection of zoledronic acid, untreated CKD = high turnover)	levels of miRNAs, low turnover induced by dietary calcium compared with zoledronic acid ([2]; bone tissue)	bone-tissue expression of miRNA-30b vs rats with high turnover ([2]; tibia, 35 weeks of age)	bone-tissue expression of miRNA-30c vs rats with high turnover ([2]; tibia, 35 weeks of age)	bone-tissue expression of miRNA-125b vs rats with high turnover ([2]; tibia, 35 weeks of age)	bone-tissue expression of miRNA-155 vs rats with high turnover ([2]; tibia, 35 weeks of age)	induction of low turnover bone remodeling (CKD rats (Cy/+) [3])
C=C1/C(=C\C=C2/CCC[C@]3(C)[C@@H]([C@H](C)CCCC(C)(C)O)CC[C@@H]23)C[C@@H](O)C[C@@H]1O [Calcitriol]	not effective	–	–	–	–	–	–	–	–
[Ca+2] [calcium]	–	low PTH	low turnover	did not differ	low expression; also recorded: lower	low expression; also recorded: lower	low expression; also recorded: lower	low expression; also recorded: lower	low turnover bone remodeling has been induced
